Results taken from patent publication US20110293558A1, “MATERIAL PROPERTIES OF T CELLS AND RELATED METHODS AND COMPOSITIONS” (Massachusetts Institute of Technology, priority 2010, published 2011).
“Also recorded” adds a separate entry of the source.

Experiments:
[1] = tested on: RBCs re-suspended in saline / Ringer solution; settings: cited from earlier work
parasitemia = settings: patients treated with artemisinin and its derivatives vs other antimalarial drugs; cited from earlier work
[2] = tested on: co-cultured uninfected RBCs (uRBCs); assay: Microfluidic deformability cytometer: cell mobility after artesunate treatment; format: cell-based, human; settings: 0.01, 0.05 or 0.1 μg/ml artesunate; 2, 4 and 6 hours after treatment
From the text: (§1) The device used in this example comprises a series of equally spaced triangular pillar arrays with pore sizes ranging from 2.5 to 4 um (FIG. 55A illustrates the case of 3 um pore size). Compared to the diameter of an average RBC (˜7.5 um), the smaller pore sizes are designed to impose similar mechanical constraints on the cells as if they are passing through blood capillaries and splenic meshwork. Driven by constant pressure gradient in the sub-Pascal-per-micrometer range, RBCs are able to deform substantially at each constriction and traverse along the channel. The dynamic deformability of RBCs is then characterized by their mobility: the ability to deform repeatedly in order to pass through multiple constrictions in series.
(§2) FIG. 55A depicts an experimental schematic of the microfluidic system. A heating chamber (Olympus) was mounted to the inverted microscope stage. Four heaters for the inner water bath, microscope stage, chamber top, and lens were designed to accurately control the ambient temperature inside the chamber. The PDMS-glass bonded device consists of the inlet and outlet reservoirs and main channels with triangular pillar arrays. It was placed inside the heating chamber with only the inlet reservoir connecting to an external syringe via a 20 cm-tubing. The reservoirs were 500×500 μm^2 squares with 20 μm-interspacing cylindrical pillar arrays; these pillar arrays could pre-filter white blood cells from whole blood, allowing only RBCs to pass through the main channels. Each of the parallel channels was 10 pillars wide and 200 pillars long. Along the flow direction, the inter-pillar spacing was 10 μm. This spacing allows deformed cells to recover and ready for subsequent deformations. Perpendicular to the flow direction, the pore size varied from 2.5 to 4 μm for different channels. Cells experience different levels of deformation when passing through these pores.
(§3) FIG. 55B presents microscopic screenshots illustrating both iRBCs and co-cultured uRBCs moving in the microchannel at different temperature conditions. The uninfected cells appear as dark shadows indicated by blue arrows, and the infected cells with thiazole orange (TO) staining appear as bright dots indicated by white arrows. The mobility of individual cells can then be derived by recording the time period for each cell passing through 10 constrictions in series (i.e. equivalent to 200 μm distance travelled). In this example, cell mobility is used to characterize the dynamic deformability of individual RBCs.
(§4) The deformability of both iRBCs and uRBCs were measured at 2, 4 and 6 hours after artesunate drug treatment (FIG. 60). A synchronized culture of rings with ˜15% parasitemia was resuspended at 0.1% hematocrit in malaria culture medium containing 0.01, 0.05 or 0.1 μg/ml of artesunate.
(§5) Layout program CleWin3.0 was used to design the microfluidic device, which consists of a 500×500 μm^2 inlet reservoir, a 500×500 μm^2 outlet reservoir, and parallel capillary channels with triangular pillar arrays (FIG. 55A). Three different pore-size of 2.5, 3.0 and 4.0 μm were designed for the capillary channels to test optimum deformation condition for the experiment. A silicon mold of the device was made using standard silicon processing techniques. The photolithography step was done using a 5× reduction step-and-repeat projection stepper (Nikon NSR2005i9, Nikon Prevision) and reactive-ion etching (RIE) techniques were used to give the mold a final depth of 4.2 μm. Final device was then casted from the silicon mold using polydimethylsiloxane (PDMS) and was sealed by a glass slide using oxygen plasma.
(§6) P. falciparum 3D7A parasites (from Malaria Research and Reference Reagent Source, American Type Culture Collection) were cultured in leukocyte-free human RBCs (Research Blood Components, Brighton Mass.) in RPMI 1640 complete medium as described (Trager and Jensen J. parasitol. 2005). […]

[3] = tested on: P. falciparum-infected RBCs (iRBCs); assay: as above; format: cell-based, human; settings: for iRBC deformability (cell mobility) after artesunate drug treatment: 0.01, 0.05 or 0.1 μg/ml artesunate, 2, 4 and 6 hours after treatment, synchronized rings ~15% parasitemia; for separation resolution between iRBCs and uRBCs: after artesunate drug treatment vs untreated
From the text: as §1, §2, §3, §4, §5, §6

RBCs = assay: Deformability cytometer: RBC velocity/passage after glutaraldehyde treatment; format: cell-based, human
From the text: The device design includes periodically spaced, triangle-shaped pillars and the gaps between these pillars result in well-controlled constrictions for RBCs to pass. The height of the device was set to 4.2 μm. RBCs were forced to assume a flat orientation before entering each constriction. This height, in addition to filters at the reservoirs, prevented white blood cells from entering the device, and permitted diluted whole blood to be used directly.
A mold of the device was made on a silicon wafer using photolithography and reactive-ion etching techniques. A 5× reduction step-and-repeat projection stepper (Nikon NSR2005i9, Nikon Precision) was used for patterning. The spacing between pillars was 3 μm, and the depth of the device was 4.2 μm. The device was made using standard PDMS casting protocols and bonded to a glass slide.
PBS was mixed with 0.2% w/v Pluronic F-108 (BASF, Mount Olive, N.J.) and 1% w/v Bovine Serum Albumin (BSA) (Sigma-Aldrich, St. Louis, Mo.) as a stock solution to prevent RBC adhesion to the device walls. For the fluorescent bead experiments, 200 nm FluoSpheres europium luminescent microspheres (Molecular Probes, Eugene, Oreg.) diluted to a final concentration of 1.25×10^−5 percent solids were used.
In experiments involving blood, 1 μl of whole blood (˜50% hematocrit) was diluted in 100 μl of the PBS-pluronic-BSA solution for all of the experiments. […]

## CC=O [acetaldehyde]
[1]; prolonged exposure of clean RBCs to acetaldehyde, re-suspension in Ringer solution
  RBC hardening / suspension viscosity: constant suspension viscosity over the full range of hematocrit and shear rates

## C[C@@H]1CC[C@H]2[C@@H](C)C(=O)O[C@@H]3O[C@@]4(C)CC[C@@H]1[C@]32OO4 [artemisinin]
parasitemia
  decline in parasitemia: more rapid decline in parasitemia

## C[C@H]1[C@H](OC(=O)CCC(=O)O)O[C@@H]2O[C@@]3(C)CC[C@H]4[C@H](C)CC[C@@H]1[C@@]24OO3 [artesunate]
[2]
  uRBC deformability (cell mobility) after artesunate drug treatment: stiffening effect; also recorded: stiffened considerably
[3]
  iRBC deformability (cell mobility) after artesunate drug treatment: stiffening effect; also recorded: drop in iRBC deformability is more precipitous than in uRBC
  separation resolution between iRBCs and uRBCs: almost doubled
[3]; listed as Artesunate
  iRBC deformability (cell mobility) after artesunate drug treatment: significant decrease in cell mobility
  separation resolution between iRBCs and uRBCs: doubled
[3]; 2 and 4 hours after artesunate treatment, iRBCs and uRBCs both measured
  mobility decrease: smaller and less pronounced mobility decrease
[3]; after 4 hour drug treatment, dosage range 0.01 to 0.1 μg/ml
  dose dependence of mobility changes: no statistically significant dose dependence

## O=CCCCC=O [glutaraldehyde]
RBCs; 30 minutes in PBS, approx. 0.61 Pa/μm, FIG. 5B
  RBC stiffness / velocity with increasing glutaraldehyde concentration: progressively stiffer with decreasing velocity
RBCs; glutaraldehyde concentrations greater than 0.003%
  RBC passage into the channel: most RBCs were held up at the entrance to the channel

## Fibrinogen
[1]; fibrinogen added progressively to washed RBCs in pure saline
  suspension viscosity: increase in viscosity with increasing fibrinogen concentration at low deformation rates
